According to ChEMBL document CHEMBL1275354, “Anticonvulsant activity of 2,4(1H)-diarylimidazoles in mice and rats acute seizure models” (Bioorg Med Chem, 2010):
Activity calls are given as the source filed them. The rule behind the calls is not given here.

What was measured:
Mus musculus [1] = assay: Neurotoxicity in ip dosed albino CF1 mouse assessed as minimum dose required to cause toxicity after 4 hrs by rotarod test; assay type: organism-based; conditions: in vivo
Mus musculus [2] = assay: Neurotoxicity in albino CF1 mouse assessed as minimal motor impairment at 100 mg/kg, ip after 4 hrs by rotarod test; assay type: toxicity, organism-based; set-up: dose 100 mg/kg, route intraperitoneal; conditions: in vivo
Mus musculus [3] = assay: Anticonvulsant activity in albino CF1 mouse assessed as protection against subcutaneous metrazole-induced seizures at 100 mg/kg, ip after 0.5 hrs; assay type: functional, organism-based; set-up: dose 100 mg/kg
Mus musculus [4] = assay: Anticonvulsant activity in albino CF1 mouse assessed as protection against maximal electroshock-induced seizures at 30 mg/kg, ip after 4 hrs; assay type: functional, organism-based; set-up: dose 30 mg/kg
Mus musculus [5] = assay: Anticonvulsant activity in albino CF1 mouse assessed as protection against subcutaneous metrazole-induced seizures at 30 mg/kg, ip after 4 hrs; assay type: functional, organism-based; set-up: dose 30 mg/kg
Mus musculus [6] = assay: Anticonvulsant activity against maximal electroshock-induced seizures in ip dosed albino CF1 mouse assessed as minimum effective dose after 0.5 hrs; assay type: functional; conditions: read-out: MED
Mus musculus [7] = assay: Anticonvulsant activity in albino CF1 mouse assessed as protection against maximal electroshock-induced seizures at 100 mg/kg, ip after 4 hrs; assay type: functional, organism-based; set-up: dose 100 mg/kg
Mus musculus [8] = assay: Anticonvulsant activity in albino CF1 mouse assessed as protection against maximal electroshock-induced seizures at 100 mg/kg, ip after 0.5 hrs; assay type: functional, organism-based; set-up: dose 100 mg/kg
Mus musculus [9] = assay: Neurotoxicity in albino CF1 mouse assessed as minimal motor impairment at 30 mg/kg, ip after 4 hrs by rotarod test; assay type: toxicity, organism-based; set-up: dose 30 mg/kg, route intraperitoneal; conditions: in vivo
Mus musculus [10] = assay: Anticonvulsant activity in albino CF1 mouse assessed as protection against subcutaneous metrazole-induced seizures at 300 mg/kg, ip after 0.5 hrs; assay type: functional, organism-based; set-up: dose 300 mg/kg
Mus musculus [11] = assay: Anticonvulsant activity in albino CF1 mouse assessed as protection against maximal electroshock-induced seizures at 300 mg/kg, ip after 4 hrs; assay type: functional, organism-based; set-up: dose 300 mg/kg
Mus musculus [12] = assay: Anticonvulsant activity in albino CF1 mouse assessed as protection against subcutaneous metrazole-induced seizures at 100 mg/kg, ip after 4 hrs; assay type: functional, organism-based; set-up: dose 100 mg/kg
Mus musculus [13] = assay: Anticonvulsant activity against subcutaneous metrazole-induced seizures in ip dosed albino CF1 mouse assessed as minimum effective dose after 4 hrs; assay type: functional; conditions: albino CF1, 4 h, read-out: MED
Mus musculus [14] = assay: Anticonvulsant activity against subcutaneous metrazole-induced seizures in ip dosed albino CF1 mouse assessed as minimum effective dose after 0.5 hrs; assay type: functional; conditions: albino CF1, 0.5 h, read-out: MED
Mus musculus [15] = assay: Neurotoxicity in ip dosed albino CF1 mouse assessed as minimum dose required to cause toxicity after 0.5 hrs by rotarod test; assay type: organism-based; conditions: in vivo
Mus musculus [16] = assay: Anticonvulsant activity in albino CF1 mouse assessed as protection against maximal electroshock-induced seizures at 30 mg/kg, ip after 0.5 hrs; assay type: functional, organism-based; set-up: dose 30 mg/kg
Mus musculus [17] = assay: Neurotoxicity in albino CF1 mouse assessed as minimal motor impairment at 30 to 300 mg/kg, po after 4 hrs by rotarod test; assay type: toxicity, organism-based; set-up: dose 30-300 mg/kg, route oral; conditions: in vivo
Mus musculus [18] = assay: Anticonvulsant activity in albino CF1 mouse assessed as protection against subcutaneous metrazole-induced seizures at 30 mg/kg, ip after 0.5 hrs; assay type: functional, organism-based; set-up: dose 30 mg/kg
Mus musculus [19] = assay: Anticonvulsant activity against maximal electroshock-induced seizures in ip dosed albino CF1 mouse assessed as minimum effective dose after 4 hrs; assay type: functional; conditions: read-out: MED
Mus musculus [20] = assay: Neurotoxicity in albino CF1 mouse assessed as minimal motor impairment at 30 to 300 mg/kg, ip after 0.5 hrs by rotarod test; conditions: in vivo
Mus musculus [21] = assay: Neurotoxicity in albino CF1 mouse assessed as minimal motor impairment at 30 mg/kg, ip after 0.5 hrs by rotarod test; assay type: toxicity, organism-based; set-up: dose 30 mg/kg, route intraperitoneal; conditions: in vivo
Mus musculus [22] = assay: Anticonvulsant activity in albino CF1 mouse assessed as protection against subcutaneous metrazole-induced seizures at 300 mg/kg, ip after 4 hrs; assay type: functional, organism-based; set-up: dose 300 mg/kg
Mus musculus [23] = assay: Anticonvulsant activity in albino CF1 mouse assessed as protection against maximal electroshock-induced seizures at 300 mg/kg, ip after 0.5 hrs; assay type: functional, organism-based; set-up: dose 300 mg/kg
Mus musculus [24] = assay: Neurotoxicity in albino CF1 mouse assessed as minimal motor impairment at 300 mg/kg, ip after 4 hrs by rotarod test; assay type: toxicity, organism-based; set-up: dose 300 mg/kg, route intraperitoneal; conditions: in vivo
Mus musculus [25] = assay: Neurotoxicity in albino CF1 mouse assessed as minimal motor impairment at 100 mg/kg, ip after 0.5 hrs by rotarod test; assay type: toxicity, organism-based; set-up: dose 100 mg/kg, route intraperitoneal; conditions: in vivo
Mus musculus [26] = assay: Neurotoxicity in albino CF1 mouse assessed as minimal motor impairment at 300 mg/kg, ip after 0.5 hrs by rotarod test; assay type: toxicity, organism-based; set-up: dose 300 mg/kg, route intraperitoneal; conditions: in vivo

Structure (SMILES)	MED (Mus musculus [1])	Activity (Mus musculus [2])	Activity (Mus musculus [3])	Activity (Mus musculus [4])	Activity (Mus musculus [5])	minimal effective dose (Mus musculus [6])	Activity (Mus musculus [7])	Activity (Mus musculus [9])	Activity (Mus musculus [10])	Activity (Mus musculus [12])	minimal effective dose (Mus musculus [13])	minimal effective dose (Mus musculus [14])	MED (Mus musculus [15])	Activity (Mus musculus [16])	Activity (Mus musculus [17])	Activity (Mus musculus [18])	minimal effective dose (Mus musculus [19])	Activity (Mus musculus [20])	Activity (Mus musculus [21])	Activity (Mus musculus [23])	further results
c1ccc(-c2c[nH]c(-c3cc4ccccc4o3)n2)cc1	> 300 mg/kg	Non-toxic	inactive	inactive	inactive	> 300 mg/kg	inactive	Non-toxic	inactive	inactive	> 300 mg/kg	> 300 mg/kg	> 300 mg/kg	inactive	Non-toxic	inactive	> 300 mg/kg	Non-toxic	Non-toxic	inactive	Activity (Mus musculus [8]): inactive; Activity (Mus musculus [11]): inactive; Activity (Mus musculus [22]): inactive
COc1cccc(-c2nc(-c3ccccc3)c[nH]2)c1	> 300 mg/kg	Non-toxic	inactive	inactive	inactive	> 30 mg/kg		Non-toxic		inactive	> 300 mg/kg	> 300 mg/kg	> 30 mg/kg	inactive	Non-toxic	inactive	100 mg/kg	Non-toxic	Non-toxic	Active	Activity (Mus musculus [24]): Non-toxic; Activity (Mus musculus [8]): Active; Activity (Mus musculus [11]): Active; Activity (Mus musculus [25]): Toxic
c1ccc(-c2c[nH]c(-c3ccncc3)n2)cc1	100 mg/kg	Non-toxic	inactive	inactive	inactive	100 mg/kg		Non-toxic	inactive	inactive	> 300 mg/kg	> 300 mg/kg	100 mg/kg	inactive		inactive	100 mg/kg	Non-toxic	Non-toxic	Active	Activity (Mus musculus [24]): Toxic; Activity (Mus musculus [26]): Toxic; Activity (Mus musculus [11]): Active
c1ccc(-c2c[nH]c(C3CCCCC3)n2)cc1	> 300 mg/kg	Non-toxic		inactive	inactive	> 300 mg/kg	inactive	Non-toxic		inactive	> 300 mg/kg	> 300 mg/kg	100 mg/kg	inactive	Non-toxic	inactive	> 300 mg/kg	Non-toxic	Non-toxic		Activity (Mus musculus [24]): Non-toxic; Activity (Mus musculus [8]): inactive; Activity (Mus musculus [11]): inactive
Clc1cccc(-c2nc(-c3ccccc3)c[nH]2)c1	> 300 mg/kg	Non-toxic	inactive	inactive	inactive	100 mg/kg	inactive	Non-toxic	Active	inactive	> 300 mg/kg	100 mg/kg	100 mg/kg	inactive	Non-toxic	inactive	100 mg/kg	Non-toxic	Non-toxic	Active	Activity (Mus musculus [24]): Non-toxic; Activity (Mus musculus [11]): Active; Activity (Mus musculus [25]): Non-toxic; Activity (Mus musculus [22]): inactive
FC(F)(F)c1ccc(-c2c[nH]c(-c3ccccc3)n2)cc1	100 mg/kg	Non-toxic	inactive	inactive	inactive	100 mg/kg	inactive	Non-toxic	inactive	inactive	100 mg/kg	> 300 mg/kg	100 mg/kg	inactive	Non-toxic	inactive	> 300 mg/kg	Non-toxic	Non-toxic	Active	Activity (Mus musculus [24]): Toxic; Activity (Mus musculus [22]): Active
c1ccc(-c2c[nH]c(-c3ccsc3)n2)cc1	> 300 mg/kg	Non-toxic	inactive	inactive	inactive	100 mg/kg	inactive	Non-toxic	inactive	inactive	> 300 mg/kg	> 300 mg/kg	100 mg/kg	inactive	Non-toxic	inactive	> 300 mg/kg	Non-toxic	Non-toxic	Active	Activity (Mus musculus [8]): Active; Activity (Mus musculus [22]): inactive
